Legend:
[1] = DPPH* radical antioxidant test of plant extracts; type: biochemical; settings: DPPH* assay, reference; read-out: EC50 of Vitamin E
[2] = Photobleaching of lycopenes in mineral oil; type: physicochemical; settings: 0.1% in Mineral Oil, visible light and oxygen, FIG. 1
Description: FIG. 1A is a graph illustrating the effects of photobleaching of lycopenes dissolved in mineral oil, over time.
The principal plant actives under development are the hydrophobic plant actives derived from carrot extracts (carotenes) and tomato paste (lycopenes). Both actives are known anti-cancer agents and regulators of epithelial homeostasis. Their role in epidermopoeisis and skin care is still under investigation. For both materials, extracts have been prepared and enriched by sequential extraction with ethyl alcohol and organic solvents. These extracts are then dried to a powder form and solubilized in Mineral Oil. A clear necessity for the preparation of such formulations is to prevent the photo-bleaching that occurs in mineral oil solutions exposed to visible light and oxygen This may typically be accomplished by addition of mineral oil solutions of Vitamin E (0.1%). […] Similar results have been obtained with the addition of Vitamin E to prevent the photo-bleaching of carotenes derived from Carrot Extracts.

With Tocopherol [Vitamin E] the EC50 [1] was 46 µM and the “effect on photo-bleaching of lycopenes” value [2] was “photo-protective effect”.
